From patent US9701729B2, “Peptide having 5 linked CTL epitopes” (TAIHO PHARMACEUTICAL CO., LTD., priority 2013, dated 2017) come the findings set out here.

The test system of assay [1] is CTL epitope peptide specific IgG antibody. Nature of the assay: Measurement of CTL-epitope specific IgG antibody titer in mouse serum (peptide-immobilized beads, Bio-Plex). Type of assay: in vivo, CBF1 mice (C57BL/6×Balb/c F1). Particulars: emulsion with IFA, 100 μl weekly, three times; serum 1 week after final administration; compared with the IFA group. Here is the method:
Peptides were immobilized onto xMAP Multi-Analyte COOH Microspheres (Luminex Corporation; hereafter referred to as “beads”) in the manner described below. The beads were washed with MES buffer (0.1 M MES-NaOH; pH 7.0), the supernatant was removed by centrifugation. This washing process was repeated twice and the beads were then suspended in 75 μl of MES buffer. 100 μl of CTL epitope peptide solution (1 mg/ml), and 5 μl of 10 mg/ml EDC (1-ethyl-3-(3-dimethylaminopropyl)carbodiimide hydrochloride) solution was added into beads suspension then mixed well. Thereafter, the reaction was performed at 30° C. in the dark overnight. After the removal of supernatant by centrifugation on the following day, 125 μl of 1 M Tris-HCl was added, and incubation was carried out at 30° C. in the dark for 30 minutes. After the supernatant was removed again, the beads were washed twice with wash buffer (PBS(-), 0.05% Tween 20) and were suspended in Immunoblock (DS Pharma Biomedical Co., Ltd.). […]
The CTL epitope peptide-immobilized beads diluted with Immunoblock were dispensed into wells of a 96-well filter plate. […] After the three times of plate washing with a wash buffer, 100 μl of wash buffer was added into each well to suspend beads, and the mean fluorescence intensity of PE which specifically bound to relevant beads was measured using the Bio-Plex Suspension Array System (BIO-RAD). […]

Assay [2] concerns CTL epitope peptide specific CTL. The experiment in a line: Induction of epitope peptide specific CTLs in mouse model, detection by IFN-γ ELISPOT. The class given is in vivo, mice (HLA-A2.1 transgenic and HLA-A24 transgenic mice). Particulars: emulsion with IFA, 100 μl weekly at base of tail, twice; inguinal lymph node cells 1 week after final administration; positive = spots significantly above negative control peptide (p<0.05). Here is the method:
The peptides having 5 linked epitopes were dissolved in Otsuka distilled water (Otsuka Pharmaceutical Factory Inc.) at 2 mg/ml or 4 mg/ml, and the resulting solution was filled into the B Braun Injekt syringe. After the equivalent amount of Incomplete Freund's adjuvant (IFA) was filled into another syringe, these syringes were connected to each other using a GP syringe connector, and a solution of the peptides having 5 linked epitopes was thoroughly mixed with IFA to prepare an emulsion. The emulsion was weekly administered in amounts of 100 μl each in the vicinity of base of tail of mice (HLA-A2.1 transgenic and HLA-A24 transgenic mice (Taconic)), and administrations were carried out twice in total. Inguinal lymph nodes were corrected from mice 1 week after the final administration. […] The number of IFN-γ-producing cell spots was quantified using an ELISPOT analyzer (Immunospot S6, Cellular Technology Ltd.). […]

Regarding “PEP2-RR-PEP3-RR-PEP4-RR-PEP5-RR-PEP7 (ASLDSDPWVRRLLQAEAPRLRRDYSARWNEIRRVYDYNCHVDLRRQIRPIFSNR) [TPV17]”, in assay [1], the “induction of CTL epitope specific IgG antibody production” value was “multiple CTL epitope specific IgG antibodies production was not induced”.

As for “PEP7-RR-PEP2-RR-PEP5-RR-PEP3-RR-PEP4 (QIRPIFSNRRRASLDSDPWVRRVYDYNCHVDLRRLLQAEAPRLRRDYSARWNEI) [TPV18]”, in assay [2], the “number of types of CTL epitope peptide specific CTLs induced” value was “no more than two CTLs induced”.
